Results: PMC7353089, “The Hepatotoxicity of Alantolactone and Germacrone: Their Influence on Cholesterol and Lipid Metabolism in Differentiated HepaRG Cells” (Nutrients, 2020)

Legend:
Test in all cases: RT-qPCR mRNA expression in dHepaRG cells
Format in all cases: cell-based, human
HMGCS mRNA = tested on: HMGCS mRNA
Description: Three concentrations were selected for each compound (non-toxic, non-toxic/slightly toxic and toxic). The cholesterol level of the dHepaRG cells was measured after a multiple exposure of the highest non-toxic concentrations of tested compounds. […] The expression changes of genes and proteins related to cholesterol metabolism were measured in both single and multiple exposure experiments.
All treatments were performed in triplicates and every experiment was performed three times. The cells were washed twice with ice cold phosphate-buffered saline (PBS), scrapped and stored at −80 °C until use. Total RNA from cells was isolated using TriReagent according to the manufacturer’s instructions (Biotech, Prague, Czech Republic). The purified RNA was dissolved in 40 µL of diethyl pyrocarbonate (DEPC)-treated water (0.01% DEPC in HPLC water, autoclaved) and stored at −80 °C. The measurement of absorbance at 260 and 280 nm using the NanoDrop ND-1000 UV–VIS Spectrophotometer (Thermo Fisher Scientific, Pardubice, Czech Republic) was used to determine RNA yields and purity. Subsequently, the RNA (4 µg) was treated with 2 U of DNase I (New England Biolabs, Ipswich, MA, USA) in a final volume of 30 µL for 25 min at 37 °C, 1.5 µL of 0.1 M ethylenediaminetetraacetic acid was added and the DNAse was inactivated by heat (5 min at 75 °C). The solution was diluted to a concentration of 0.1 µg/µL. The DNAse treated RNA was stored at −80 °C until further analyses. The first strand cDNA was synthesized from 800 ng of total RNA and 1 µL of 50 µM random hexamers (Generi Biotech, Hradec Kralove, Czech Republic) using ProtoScript II reverse transcriptase (New England Biolabs, Ipswich, MA, USA). After the initial heat denaturation of total RNA (65 °C for 5 min), 4 µL of 5× ProtoScript II RT Reaction Buffer, 2 µL of 10× dithiothreitol (DTT), 2 µL of deoxynucleotide (dNTP) Mix 5 mM, 3.5 µL of H2O, and 0.5 µL of ProtoScript II 200 U/µL were added and mixed by pipetting. The reactions (20 µL) were incubated for 10 min at 25 °C, for 50 min at 42 °C, and for 5 min at 80 °C. The obtained cDNAs were diluted 1:6 by DEPC water. The qPCR analyses were carried out using QuantStudio 6 Flex (Applied Biosystems, Foster City, CA, USA) with SYBR green I (Xceed qPCR SG Mix, Institute of Applied Biotechnologies, Prague, Czech Republic) detection according to the manufacturer’s protocol. […] Fluorescence data were recorded at the end of each amplification step. Relative expression levels of the target genes were calculated as fold changes in triplicates for each group using the 2^−ΔΔCt method [28] by normalization to the geometric mean of the Ct values of Sdha and Ywhaz, which were used as reference genes.

A1AT mRNA = conditions: after 24 h
Description: (§1) Three concentrations were selected for each compound (non-toxic, non-toxic/slightly toxic and toxic). […] The expression changes of genes and proteins related to cholesterol metabolism were measured in both single and multiple exposure experiments.
(§2) All treatments were performed in triplicates and every experiment was performed three times. The cells were washed twice with ice cold phosphate-buffered saline (PBS), scrapped and stored at −80 °C until use. Total RNA from cells was isolated using TriReagent according to the manufacturer’s instructions (Biotech, Prague, Czech Republic). The purified RNA was dissolved in 40 µL of diethyl pyrocarbonate (DEPC)-treated water (0.01% DEPC in HPLC water, autoclaved) and stored at −80 °C. The measurement of absorbance at 260 and 280 nm using the NanoDrop ND-1000 UV–VIS Spectrophotometer (Thermo Fisher Scientific, Pardubice, Czech Republic) was used to determine RNA yields and purity. […] Fluorescence data were recorded at the end of each amplification step. Relative expression levels of the target genes were calculated as fold changes in triplicates for each group using the 2^−ΔΔCt method [28] by normalization to the geometric mean of the Ct values of Sdha and Ywhaz, which were used as reference genes.

ALB mRNA = conditions: after 6 h of exposure
Description: as §1, §2

Structure (SMILES) | HMGCS mRNA level (HMGCS mRNA; multiple exposure: four applications every 24 h, analyzed 12 h after the last, 30 μM ATL, 100 μM GER, 20 μM LOV) | HMGCS mRNA level (HMGCS mRNA; single exposure, the highest concentration, 6-h exposure) | HMGCS mRNA level (HMGCS mRNA; single exposure, the highest concentration, 12- and 24-h exposure) | A1AT mRNA expression (A1AT mRNA) | ALB mRNA expression (ALB mRNA)
C=C1C(=O)O[C@@H]2C[C@@]3(C)CCC[C@H](C)C3=C[C@H]12 [ATL, alantolactone] | induced | induction | decreased level |  | 
CC(C)=C1C/C=C(\C)CC/C=C(\C)CC1=O [GER, germacrone] |  |  |  | inhibited | induced
